Data taken from patent publication US10125453B2, “Antimicrobial textile products and method of obtaining thereof” (YEDITEPE ÜNIVERSITESI, priority 2013, dated 2018).

Key:
Assay type in all cases: cell-based
Parameters in all cases: key: +: inhibition zones against the tested microorganisms were observed; −: inhibition zones were not detected
Aspergillus spp. = test: standard NCCLS disc diffusion method, Aspergillus spp.; conditions: 100 u/disc, PDA, 25±1° C., 72 hours
Method: (§1) Antimicrobial properties of the textile products loaded with impregnation solution were examined by using standard NCCLS disc diffusion method (Lalitha, 2005). Briefly, the 100 μl solution including 10^8 cfu/ml bacteria, 10^6 cfu/ml yeast, and 10^4 spor/ml fungus was prepared with new cultures and inoculated with spreading method on Trypticase soy agar (TSA), Sabouraud Dextrose Agar (SDA), and Potato Dextrose Agar (PDA), respectively. The sections of approximately 1×1 cm, which were cut out from the textile products loaded with the impregnation solution comprising the stated concentrations of triclosan, chlorhexidine and disodium octaborate pentahydrate, were placed on inoculated petri dishes. Empty textile products which were not loaded with impregnation solution were used as negative control. As positive control, Ofloxacin (5 μg/disc) was used for bacteria and Nystatin (100 u/disc) was used for yeasts and fungi. The petri dishes, which were inoculated and on which textile products were placed, were kept at 36±1° C. for bacteria for 24 hours and 48 hours for yeasts and at 25±1° C. for fungi for 72 hours. Antimicrobial activity against microorganisms tested in standard disc diffusion method was assessed by measuring the inhibition zone. All tests were repeated at least twice.

Penicillium spp. = test: standard NCCLS disc diffusion method, Penicillium spp.; conditions: 100 u/disc, PDA, 25±1° C., 72 hours
Method: as §1

Candida spp. = test: standard NCCLS disc diffusion method, Candida spp.; conditions: 100 u/disc, SDA, 36±1° C., 48 hours
Method: as §1

Staphylococcus aureus = test: standard NCCLS disc diffusion method, Staphylococcus aureus; conditions: 10 μg/disc, TSA, 36±1° C., 24 hours
Method: as §1, with “As positive control, Ofloxacin (5 μg/disc) was used for bacteria and Nystatin (100 u/disc) was used for yeasts and fungi.” left out

Pseudomonas aeruginosa = test: standard NCCLS disc diffusion method, Pseudomonas aeruginosa; conditions: TSA, 36±1° C., 24 hours
Method: as §1, with “As positive control, Ofloxacin (5 μg/disc) was used for bacteria and Nystatin (100 u/disc) was used for yeasts and fungi.” left out

MRSA = test: standard NCCLS disc diffusion method, MRSA; conditions: TSA, 36±1° C., 24 hours
Method: as §1, with “As positive control, Ofloxacin (5 μg/disc) was used for bacteria and Nystatin (100 u/disc) was used for yeasts and fungi.” left out

Escherichia coli = test: standard NCCLS disc diffusion method, Escherichia coli; conditions: TSA, 36±1° C., 24 hours
Method: as §1, with “As positive control, Ofloxacin (5 μg/disc) was used for bacteria and Nystatin (100 u/disc) was used for yeasts and fungi.” left out

Measured: In vitro antimicrobial test result (inhibition zone), positive control

C[C@@H]1[C@H](O)[C@@H](C)/C=C/C=C/CC/C=C/C=C/C=C/C=C/C(O[C@H]2O[C@H](C)[C@@H](O)[C@H](N)[C@@H]2O)CC2O[C@](O)(CC(O)C(O)CCC(O)CC(O)CC(O)CC(=O)O[C@H]1C)CC(O)C2C(=O)O (stereo partly shown) [Nystatin]
+: Aspergillus spp. | Penicillium spp. | Candida spp.

CC1COc2c(N3CCN(C)CC3)c(F)cc3c(=O)c(C(=O)O)cn1c23 (stereo not shown) [Ofloxacin]
+: Staphylococcus aureus | Pseudomonas aeruginosa | MRSA | Escherichia coli
